Data as given in US20200010814A1, “NOVEL MONOOXYGENASE AND UTILIZATION THEREOF” (KANEKA CORPORATION, priority 2017, published 2020).

Test system: pQAH1/pRAT1 Rhodococcus erythropolis L88
Assay: Evaluation of substrate specificity
Assay type: cell-based
Settings: 10 mM substrate, 5% glucose, 26 hours of reaction; NMR and optical rotation analyses
Protocol: pQAH1/pRAT1 Rhodococcus erythropolis L88 was cultured in an LB medium by a method similar to that for Example 5. Expression of a protein was induced with 0.2 μg/ml of thiostrepton, and then 10 mM of each of L-isovaline, D-isovaline, L-aminobutyrate, and D-aminobutyrate was added together with 5% glucose. After 26 hours of reaction, the reaction supernatant was analyzed by the LCMS analysis method used for Example 1.

Structure (SMILES)	product of the hydroxylation reaction of the substrate
CC[C@@](C)(N)C(=O)O [D-isovaline]	(2R,3R)-2-methyl threonine
CC[C@@H](N)C(=O)O [D-aminobutyrate]	D-allo-threonine
CC[C@](C)(N)C(=O)O [L-isovaline]	(2S,3S)-2-methyl threonine
CC[C@H](N)C(=O)O [L-aminobutyrate]	L-allo-threonine
